The record followed here is patent US20200289554A1, “BIOORTHOGONAL COMPOUNDS COMPRISING A PROPARGYL GROUP FOR TREATING CANCER” (THE UNIVERSITY COURT OF THE UNIVERSITY OF EDINBURGH, priority 2016, published 2020).

The experiment relates to U87G cells. Kind of experiment: BOOM conversion: prodrug + Pd0-resins in cell culture, cell viability, U87G. It is filed as cell-based, human. The conditions noted are these: Homo sapiens, 120 h, prodrug in combination with Pd0-resins 0.8 mg/mL, 5 days, read-out: EC50, prodrug + Pd-resins. The procedure:
Following 5 days treatment, cells were incubated with PrestoBlue™ Cell Viability Reagent (Life Technologies) for 60-90 min. Fluorescence intensity values were related to the untreated cells (100% cell viability). […] Cells incubated in 0.1% (v/v) DMSO in media were used as untreated cell control.
The toxigenic effect as a result of in situ generation of parental drug in cell culture was determined by incubating all cells in tissue culture media containing 0.1% (v/v) DMSO and a) Pd^0, Au, or Pd/Au-resin (1 mg/mL for all cells tested, negative control); b) prodrug (negative control); or c) Pd^0, Au, or Pd/Au-resin (1 mg/mL for all cells)+prodrug (reaction assay). Cells incubated in 0.1% (v/v) DMSO in media was used as an untreated cell reference standard (100% viability). A PrestoBlue® cell viability assay as described above was carried out and fluorescent intensities compared to the untreated cell control.
A dose response study was performed for each cell line keeping the quantity of Pd^0 resin constant (0.8 mg/mL for U87G and 1 mg/mL for the rest of cell lines). […] Fluorescence intensity values (detected using a PerkinElmer EnVision 2101 multilabel reader with excitation filter at 540 nm and emissions filter at 590 nm) were determined relative to the untreated cell control.

Take `C#CCOc1ccc(CONC(=O)CCCCCCC(=O)Nc2ccccc2)cc1` [POB-Vor, Propargyloxybenzyl-Vorinostat]: the EC50 was determined as 24.7 µM.

As a reminder, the EC50 is the concentration at which the effect is half-maximal.
